Experimental data: US7351722B2, “Use of Mangafodipir for treating oxidative stress effects” (Universite Rene Descartes (Paris V), priority 2001, dated 2008)

Conditions: spectrophotometry at 340 nm for 5 minutes
Method: The glutathione reductase activity was assayed using the kit: “Glutathione reductase assay kit” marketed by the company Calbiochem. The reaction mixture is analyzed by spectrophotometry at 340 nm for 5 minutes.

Manganese dipyridoxyl phosphate [Mangafodipir]
glutathione reductase activity: 19.9±1.75 mU glutathione reductase per milligram of Mangafodipir
